The subject of assay [1] is immature ovariectomized rats. The assay is described as follows: Estrogen agonistic activity: increase in uterine weight in immature ovariectomized rats. The assay is classed as in vivo, rat. The conditions noted are these: 3 days, percent of ovariectomized + vehicle group. The method, then:
Twenty-one-day-old immature female rats are bilaterally ovariectomized under light ether anaesthesia and, after post-operative rest for 7 days, are randomized into different treatment groups. Each rat receives the compound of the invention once daily for 3 consecutive days on days 28-30 of age. A separate group of animals receiving only the vehicle for similar duration serves as control. A autopsy 24 h after the last treatment on day 31 of age, vaginal smear of each rat is taken and uterus is carefully exised, gently blotted, weighed and fixed for histology and histomorphometry using image analysis. Premature opening of vagina, cornification of vaginal epitelium, increase in uterine fresh weight, total uterine and endometrial area and uterine luminal epithelial cell height are taken as parameters for evaluation of estrogen agonistic activity in comparision to rats of vehicle control group.

For another assay, the system named is MCF-7 cells. The assay is described as follows: Antiproliferative/cytotoxic activity in cultured MCF-7 cells (SRB assay). The class given is cell-based. As to conditions: Homo sapiens, MCF7, 48 h, MCF-7, 48 h. As for the experimental part: The procedure is based on the following methods: New calorimetric assay for anticancer drug screening, Skehan et al., J Natn Cancer Inst, 82,1107, 1990 and Feasibility of a high-flux anticancer drug screen using a diverse panel of cultured human tumor cell lines, J Natn Cancer Inst, 83,757, 1991.
A fully confluent flask of MCF-7 cells in trypsinized and 10^4 cells/well are plated in a 96 welled flat bottomed plate in 200 μl Minimum Essential Medium (MEM), pH 7.4 and allowed to attach for 24 h at 37° C. in a humidified CO2 incubator. Subsequently, the compound of invention dissolved in DMSO or ethanol is added at a specified concentration and further incubated for 48 h as before. The cells are then fixed in 50 μl cold 50% TCA and incubated for 1 h at 4° C. The supernatant is discarded and the plate is washed five times with deionized water and air-dried. 100 μl of 0.4% (w/v) Sulforhodamine B (SRB) in 1% acetic acid is added to each well and incubated at room temperature for 30 minutes. Unbound SRB is removed by five washes with chilled 1% acetic acid and the plate is air-dried. 200 μl of unbuffered 10 mM Tris base is added to solublize the bound stain for 5 minutes at room temperature and O.D. is read at 560 nm in a plate reader. The graph is plotted between O.D. and concentration and LC50 is calculated with respect to tamoxifen, which is used as a positive control.
For orientation: In SRB staining, fixed cells bind dye roughly in proportion to their protein.

The subject of assay [2] is immature ovariectomized rats. Description: Estrogen antagonistic activity: inhibition in 17α-ethynylestradiol induced uterine weight gain in immature ovariectomized rats. The assay is classed as in vivo, rat. As to conditions: 3 days. The method, then:
Twenty-one-day-old immature female rats are bilaterally ovariectomized under light ether anaesthesia and after post-operative rest for 7 days, are randomized into different treatment groups. Each rat receives the compounds of the invention and 0.02 mg/kg dose of 17-alfa-ethynylestradiol in 10% ethanol-distilled water once daily for 3 consecutive days on days 28-30 of age. A separate group of animals receiving only 17-alfa-ethynylestradiol (0.02 mg/kg) in 10% ethanol-distilled water for similar duration are used for comparison. At autopsy on day 31 of age, vaginal smear of each rat is taken and uterus is carefully excised, gently blotted, weighed and fixed for histology and histomorphometry using image analysis. Inhibition in 17-alfa-ethynylestradiol-induced premature opening of vagina, cornification of vaginal epithelium, increase in uterine fresh weight, total uterine and endometrial area and uterine luminal epithelial cell height are taken as parameters for evaluation of estrogen antagonistic activity.

For another assay, the target named is T1, estrogen receptors (Rattus norvegicus, UniProt P06211).
T1 construct: Aliquot of uterine cytosol (200 μl; 2 uteri per ml) prepared in TEA buffer; from tissue; host or cells: uterine cytosol of immature estradiol-primed 20-21 day old rats
T1 sequence (P06211 1-600): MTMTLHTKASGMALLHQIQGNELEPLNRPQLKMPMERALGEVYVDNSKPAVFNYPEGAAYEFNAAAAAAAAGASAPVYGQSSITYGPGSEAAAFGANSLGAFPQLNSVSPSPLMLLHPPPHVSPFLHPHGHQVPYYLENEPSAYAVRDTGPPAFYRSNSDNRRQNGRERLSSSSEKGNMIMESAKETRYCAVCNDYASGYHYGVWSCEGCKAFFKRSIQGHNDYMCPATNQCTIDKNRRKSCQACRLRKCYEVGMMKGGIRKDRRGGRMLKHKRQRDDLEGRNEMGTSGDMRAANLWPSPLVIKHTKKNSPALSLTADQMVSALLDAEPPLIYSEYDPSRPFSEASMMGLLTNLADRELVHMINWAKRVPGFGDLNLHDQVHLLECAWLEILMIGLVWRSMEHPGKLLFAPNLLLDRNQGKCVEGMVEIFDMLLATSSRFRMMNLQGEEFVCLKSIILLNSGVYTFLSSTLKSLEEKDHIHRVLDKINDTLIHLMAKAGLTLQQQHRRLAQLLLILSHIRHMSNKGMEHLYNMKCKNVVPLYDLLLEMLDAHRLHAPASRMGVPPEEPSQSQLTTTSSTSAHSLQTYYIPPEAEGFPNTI
Description: Relative binding affinity (RBA) to estrogen receptors, 3H-estradiol competition assay. The conditions noted are these: relative to 17-beta-estradiol (=100, percentage value); rat uterine cytosol, 3H-E2, 18 hrs at 4° C. More on the design: key: % of 17-beta-estradiol binding affinity (estradiol = 100). As for the experimental part:
The relative binding affinity (RBA) of the compounds for estrogen receptor is determined by competition assay, employing ^3H-estradiol (^3H-E2) as the radioligand. The test ligands and ^3H-E2 are incubated at 4° C. with cystol estrogen receptors obtained from uteri of immature estradoil-primed (1 μg/rat 24 h before autopsy) 20-21 days old rats. Aliquot of uterine cytosol (200 μl; 2 uteri per ml) prepared in TEA buffer (10 mM Tris, 1.5 mM EDTA, 0.02% sodium azide, pH 7.4) are incubated in duplicate with a fixed concentration of ^3H-E2 in the absence or presence of various concentrations of the competitor substance dissolved in 30 μl of the TEA buffer containing DMF as co-solvent (final concentration of DMF in the incubation mixture never exceeded 5%) for 18 hrs at 4° C. At the end of this period, dextran coated charcoal (5% Norit 0.5% dextran) suspension in 100 μl of TEA buffer is added to each tube, briefly vortexed and allowed to stand for 15 minutes at 4° C. The mixture is centrifuged at 800 g for 10 minutes and the supernatants counted for radioactivity in 10 ml of a dioxane-based scintillation fluid. RBA of the text compound is computed from a graph plotted between percent bound radioactivity verses log concentration of the test substance. […] This when multiplied with 100 gives the percentage value designated as RBA.

The subject of the next assay is adult female rats. The assay is described as follows: Post-coital antifertility efficacy in adult female rats. The conditions noted are these: daily dose 10 mg/kg, oral, days 1-7 post-coitum. The assay is classed as in vivo, rat. The source says:
Adult female rats are caged overnight with coeval males of proven fertility and their vaginal smears are checked on the following morning. The day of presence of spermatozoa in the vaginal smear is taken as day 1 of pregnancy. Mated rats are isolated and randomized into various treatment groups and treated orally with the compound of invention or the vehicle on days 1-7/1-5 post-coitum. Animals of all the groups are autopsied on day 10 post-coitum and number and status of corpora lutea and implantation sites in each rat are recorded. The compounds of the present invention are considered active if there is complete absence of implantations in the uterus of all rats, in comparison to presence of normal implantations in the uterus of rats of vehicle control group.

Where two headings read alike, the source gives them in different places.

On to `C#C[C@]1(O)CC[C@H]2[C@@H]3CCc4cc(O)ccc4[C@H]3CC[C@@]21C` [17α-Ethynylestradiol, reference compound], for which the “Percent increase in uterine weight” value in assay [1] (daily dose 0.01 mg/kg) came out at 419%.

Turning to `c1ccc2c(c1)SCCc1c-2n(CCCCN2CCCCC2)c2ccccc12` [Example number 9, 12-[4-(Piperidine-1-yl)butyl]-6,7-dihydro-12H-benzothiepino [5,4-b]indole], in the assay with MCF-7 cells (read-out: LC50, Test-2), the CC50 turned out to be 37.4 µM.

With `CCCCN(C)CCCCCn1c2c(c3ccccc31)CCSc1ccccc1-2.O=C1O[C@H]([C@@H](O)CO)C(O)=C1O` [Example number 15, 12-[5-(N-butylmethylamino)pentyl]-6,7-dihydro-12H-benzothiepino [5,4-b]indole ascorbic acid salt], the “Percent increase in uterine weight” value is listed as 11.00% in assay [1] (daily dose 1 mg/kg), 15.00% in assay [1] (daily dose 3 mg/kg) and 11.50% in assay [1] (daily dose 10 mg/kg). The “Percent inhibition in 17α-ethynylestradiol induced uterine weight gain” value in assay [2] (daily dose 1 mg/kg with 0.02 mg/kg 17-alfa-ethynylestradiol) turned out to be 10.00%; in assay [2] (daily dose 3 mg/kg with 0.02 mg/kg 17-alfa-ethynylestradiol), 23.00%; in assay [2] (daily dose 10 mg/kg with 0.02 mg/kg 17-alfa-ethynylestradiol), 15.00%.

For `c1ccc2c(c1)SCCc1c-2n(CCCCCCN2CCCC2)c2ccccc12` [Example number 19, 12-[6-(Pyrrolidine-1-yl)hexyl]-6,7-dihydro-12H-benzothiepino [5,4-b]indole], the RBA at estrogen receptors was found to be 0.053.

For `CCCCN(C)CCCCCCn1c2c(c3ccccc31)CCSc1ccccc1-2` [Example number 20, 12-[6-(N-butylmethylamino)hexyl]-6,7-dihydro-12H-benzothiepino [5,4-b]indole], the RBA at estrogen receptors is recorded as 0.10.

With `COc1ccc2c(c1)SCCc1c-2n(CCCCCN2CCCCC2)c2ccccc12` [Example number 22, 3-Methoxy-12-[5-(piperidine-1-yl)pentyl]-6,7-dihydro-12H-benzothiepino [5,4-b]indole], at estrogen receptors, the RBA was under 0.001. In the assay on MCF-7 cells (read-out: LC50, Test-4), the CC50 is 19.5 µM.

With `COc1ccc2c(c1)SCCc1c-2n(CCCCCN2CCCC2)c2ccccc12` [Example number 23, 3-Methoxy-12-[5-(pyrrolidine-1-yl)pentyl]-6,7-dihydro-12H-benzothiepino [5,4-b]indole], the RBA at estrogen receptors is given as under 0.001. Moreover, the CC50 in the assay on MCF-7 cells (read-out: LC50, Test-4) was determined as 60 µM.

In the case of `Oc1ccc2c(c1)SCCc1c-2n(CCCCCN2CCCC2)c2ccccc12` [Example number 25, 3-Hydroxy-12-[5-(pyrrolidine-1-yl)pentyl]-6,7-dihydro-12H-benzothiepino [5,4-b]indole], the RBA on estrogen receptors stood at 0.83. In addition, the CC50 with MCF-7 cells (read-out: LC50, Test-2) worked out at 15 µM.

Turning to `Oc1ccc2c(c1)c1c(n2CCCCCN2CCCCC2)-c2ccccc2SCC1` [Example number 29, 9-Hydroxy-12-[5-(piperidine-1-yl)pentyl]-6,7-dihydro-12H-benzothiepino [5,4-b]indole], at estrogen receptors, the RBA was under 0.001. Further, in the assay on adult female rats, the “% Efficacy” value was “Inactive”.

As to `COc1ccc2c(c1)SCCc1c-2n(CCCCCN2CCCCC2)c2ccc(OC)cc12` [Example number 32, 3,9-Dimethoxy-12-[5-(piperidine-1-yl)pentyl]-6,7-dihydro-12H-benzothiepino [5,4-b]indole], the RBA at estrogen receptors is under 0.001. The CC50 in the assay on MCF-7 cells (read-out: LC50, Test-4) turned out to be 28 µM.

Turning to `COc1ccc2c(c1)SCCc1c-2n(CCCCCN2CCCC2)c2ccc(OC)cc12` [Example number 33, 3,9-Dimethoxy-12-[5-(pyrrolidine-1-yl)pentyl]-6,7-dihydro-12H-benzothiepino [5,4-b]indole], the RBA on estrogen receptors is on record as under 0.001. In addition, the CC50 in the assay on MCF-7 cells (read-out: LC50, Test-4) came to 18.2 µM.

In the case of `CCCCN(C)CCCCCn1c2c(c3cc(OC)ccc31)CCSc1cc(OC)ccc1-2` [Example number 34, 3,9-Dimethoxy-12-[5-(N-butylmethylamino)pentyl]-6,7-dihydro-12H-benzothiepino [5,4-b]indole], the RBA on estrogen receptors amounted to 0.032.

Regarding `c1ccc2c(c1)SCCc1c-2n(Cc2ccc(OCCCCCN3CCCCC3)cc2)c2ccccc12` [Example number 43, 12-[4-(5-Piperidin-1-yl-pentyloxy)benzyl]-6,7-dihydro-12H-benzothiepino [5,4-b]indole], the “% Efficacy” value with adult female rats was “Inactive”.

Regarding `c1ccc2c(c1)SCCc1c-2n(Cc2ccc(OCCCCCN3CCCCC3)cc2)c2ccccc12` [Example number 60, 12-[4-(5-Piperidin-1-yl-pentyloxy)benzyl]-6,7-dihydro-12H-benzothiepino [5,4-b]indole], in the assay with MCF-7 cells (read-out: LC50, Test-4), the CC50 was 18.4 µM. Besides, the “% Efficacy” value in the assay on adult female rats is reported as “Inactive”.

On to `CC/C(=C(\c1ccccc1)c1ccc(OCCN(C)C)cc1)c1ccccc1` [Tamoxifen, reference compound], for which the CC50 in the assay with MCF-7 cells (read-out: LC50, Test-1) is 18.5 µM; in the assay with MCF-7 cells (read-out: LC50, Test-2), 5.5 µM; with MCF-7 cells (read-out: LC50, Test-3) it was 12.4 µM; in the assay with MCF-7 cells (read-out: LC50, Test-4) it was 9.8 to 10 µM.
